Several values for one entry are separate records, joined by “and”; a condition that tells them apart may be missing. Identical values can stand only once.
Test: xn = mol fraction of the nth substance listed

CCO + O
Settings	viscosity
293.15 K, 100 kPa, x1 = 0.3	2.81 mPa·s
293.15 K, 100 kPa, x1 = 0.4	2.616 mPa·s
293.15 K, 101 kPa, x2 = 0.25	2.385 mPa·s
293.15 K, 101 kPa, x2 = 0.75	2.114 mPa·s
293.15 K, 101.33 kPa, x1 = 0.04164	1.564 mPa·s
293.15 K, 101.33 kPa, x1 = 0.2068	2.942 mPa·s
293.15 K, 101.33 kPa, x1 = 0.235	2.947 mPa·s
293.15 K, 101.33 kPa, x1 = 0.2499	2.922 mPa·s
293.15 K, 101.33 kPa, x1 = 0.3697	2.694 mPa·s
293.15 K, 101.33 kPa, x1 = 0.4771	2.381 mPa·s
293.15 K, 101.33 kPa, x1 = 0.61	2.036 mPa·s
293.15 K, 101.33 kPa, x1 = 0.7787	1.643 mPa·s
293.15 K, 101.33 kPa, x2 = 0.0102	1.261 mPa·s
298 K, 101 kPa, x1 = 0.09	1.81 mPa·s
298 K, 101 kPa, x1 = 0.1	2.409 mPa·s
298 K, 101 kPa, x1 = 0.4	2.234 mPa·s
298 K, 101 kPa, x1 = 0.5	2.013 mPa·s
298.15 K, 100 kPa, x1 = 0.2	2.335 mPa·s
298.15 K, 100 kPa, x1 = 0.4	2.148 mPa·s
298.15 K, 100 kPa, x1 = 0.78	1.423 mPa·s
298.15 K, 101 kPa, x1 = 0.0112	0.991 mPa·s
298.15 K, 101 kPa, x1 = 0.0129	1.007 mPa·s
298.15 K, 101 kPa, x1 = 0.0197	1.072 mPa·s
298.15 K, 101 kPa, x1 = 0.025	1.127 mPa·s
298.15 K, 101 kPa, x1 = 0.0289	1.166 mPa·s
298.15 K, 101 kPa, x1 = 0.0348	1.225 mPa·s
298.15 K, 101 kPa, x1 = 0.0439	1.322 mPa·s
298.15 K, 101 kPa, x1 = 0.0515	1.405 mPa·s
298.15 K, 101 kPa, x1 = 0.0677	1.576 mPa·s
298.15 K, 101 kPa, x1 = 0.1003	1.889 mPa·s
298.15 K, 101 kPa, x1 = 0.1025	1.91 mPa·s
298.15 K, 101 kPa, x1 = 0.1139	2 mPa·s
298.15 K, 101 kPa, x1 = 0.1302	2.109 mPa·s
298.15 K, 101 kPa, x1 = 0.14	2.1 mPa·s
298.15 K, 101 kPa, x1 = 0.1597	2.247 mPa·s
298.15 K, 101 kPa, x1 = 0.1837	2.322 mPa·s
298.15 K, 101 kPa, x1 = 0.28	2.25 mPa·s
298.15 K, 101 kPa, x1 = 0.3515	2.248 mPa·s
298.15 K, 101 kPa, x1 = 0.37	2.14 mPa·s
298.15 K, 101 kPa, x1 = 0.4801	1.995 mPa·s
298.15 K, 101 kPa, x1 = 0.613	1.725 mPa·s
298.15 K, 101 kPa, x1 = 0.6923	1.58 mPa·s
298.15 K, 101 kPa, x1 = 0.8006	1.401 mPa·s
298.15 K, 101 kPa, x1 = 0.8018	1.399 mPa·s
298.15 K, 101 kPa, x1 = 0.905	1.239 mPa·s
298.15 K, 101 kPa, x1 = 0.9518	1.167 mPa·s
298.15 K, 101 kPa, x2 = 0.25	2.046 mPa·s
298.15 K, 101 kPa, x2 = 0.5	2.322 mPa·s
298.15 K, 101 kPa, x2 = 0.75	1.778 mPa·s
298.15 K, 101 kPa, x2 = 0.9584	1.108 mPa·s
298.15 K, 101.33 kPa, x1 = 0.0144	0.96 mPa·s
298.15 K, 101.33 kPa, x1 = 0.0205	1.013 mPa·s
298.15 K, 101.33 kPa, x1 = 0.1135	1.851 mPa·s
298.15 K, 101.33 kPa, x1 = 0.1414	2.129 mPa·s
298.15 K, 101.33 kPa, x1 = 0.1893	2.29 mPa·s
298.15 K, 101.33 kPa, x1 = 0.2151	2.327 mPa·s
298.15 K, 101.33 kPa, x1 = 0.3285	2.273 mPa·s
298.15 K, 101.33 kPa, x1 = 0.3308	2.273 mPa·s
298.15 K, 101.33 kPa, x1 = 0.3461	2.247 mPa·s
298.15 K, 101.33 kPa, x1 = 0.3745	2.226 mPa·s
298.15 K, 101.33 kPa, x1 = 0.3801	2.212 mPa·s
298.15 K, 101.33 kPa, x1 = 0.4246	2.104 mPa·s
298.15 K, 101.33 kPa, x1 = 0.4299	2.112 mPa·s
298.15 K, 101.33 kPa, x1 = 0.4836	1.995 mPa·s
298.2 K, 100 kPa, x2 = 0.387	1.854 mPa·s
298.2 K, 100 kPa, x2 = 0.399	1.676 mPa·s
298.2 K, 100 kPa, x2 = 0.655	2.18 mPa·s
298.2 K, 100 kPa, x2 = 0.674	2.18 mPa·s
300.65 K, 101 kPa, x1 = 0.86	1.1 mPa·s
303.15 K, 101 kPa, x2 = 0.25	1.767 mPa·s
303.15 K, 101 kPa, x2 = 0.5	1.961 mPa·s
303.15 K, 101.33 kPa, x1 = 0.04164	1.179 mPa·s
303.15 K, 101.33 kPa, x1 = 0.08905	1.574 mPa·s
303.15 K, 101.33 kPa, x1 = 0.1435	1.9 mPa·s
303.15 K, 101.33 kPa, x1 = 0.2499	2.061 mPa·s
303.15 K, 101.33 kPa, x1 = 0.2652	2.056 mPa·s
303.15 K, 101.33 kPa, x1 = 0.2811	2.068 mPa·s
303.15 K, 101.33 kPa, x1 = 0.4771	1.79 mPa·s
303.15 K, 101.33 kPa, x1 = 0.61	1.567 mPa·s
303.15 K, 101.33 kPa, x1 = 0.7787	1.311 mPa·s
303.15 K, 101.33 kPa, x2 = 0.0102	1.035 mPa·s
308 K, 101 kPa, x1 = 0.09	1.343 mPa·s
308.15 K, 101 kPa, x2 = 0.25	1.54 mPa·s
308.15 K, 101 kPa, x2 = 0.5	1.676 mPa·s
308.15 K, 101 kPa, x2 = 0.9584	0.939 mPa·s
313.15 K, 101 kPa, x2 = 0.25	1.349 mPa·s
313.15 K, 101 kPa, x2 = 0.5	1.448 mPa·s
313.15 K, 101.33 kPa, x1 = 0.04164	0.909 mPa·s
313.15 K, 101.33 kPa, x1 = 0.1435	1.383 mPa·s
313.15 K, 101.33 kPa, x1 = 0.2068	1.494 mPa·s
313.15 K, 101.33 kPa, x1 = 0.2499	1.509 mPa·s
313.15 K, 101.33 kPa, x1 = 0.2652	1.514 mPa·s
313.15 K, 101.33 kPa, x1 = 0.2811	1.529 mPa·s
313.15 K, 101.33 kPa, x1 = 0.61	1.223 mPa·s
313.15 K, 101.33 kPa, x1 = 0.7787	1.05 mPa·s
317.15 K, 101 kPa, x1 = 0.86	0.779 mPa·s
318.15 K, 101 kPa, x2 = 0.25	1.185 mPa·s
318.15 K, 101 kPa, x2 = 0.5	1.255 mPa·s
318.15 K, 101 kPa, x2 = 0.9413	0.8181 mPa·s
323.15 K, 100 kPa, x1 = 0.2	1.113 mPa·s and 1.08 mPa·s
323.15 K, 100 kPa, x1 = 0.3	1.108 mPa·s
323.15 K, 100 kPa, x1 = 0.4	1.113 mPa·s and 1.072 mPa·s
323.15 K, 100 kPa, x1 = 0.6	0.9548 mPa·s and 0.9408 mPa·s
323.15 K, 100 kPa, x1 = 0.8	0.8101 mPa·s
323.15 K, 101 kPa, x2 = 0.25	1.055 mPa·s
323.15 K, 101 kPa, x2 = 0.5	1.102 mPa·s
323.15 K, 101 kPa, x2 = 0.75	0.89 mPa·s
323.15 K, 101.33 kPa, x1 = 0.04164	0.747 mPa·s
323.15 K, 101.33 kPa, x1 = 0.08905	0.924 mPa·s
323.15 K, 101.33 kPa, x1 = 0.1435	1.061 mPa·s
323.15 K, 101.33 kPa, x1 = 0.2068	1.152 mPa·s
323.15 K, 101.33 kPa, x1 = 0.235	1.157 mPa·s
323.15 K, 101.33 kPa, x1 = 0.2499	1.162 mPa·s
323.15 K, 101.33 kPa, x1 = 0.2652	1.177 mPa·s
323.15 K, 101.33 kPa, x1 = 0.2811	1.18 mPa·s
323.15 K, 101.33 kPa, x1 = 0.3697	1.162 mPa·s
323.15 K, 101.33 kPa, x1 = 0.4771	1.089 mPa·s
323.15 K, 101.33 kPa, x1 = 0.61	0.981 mPa·s
323.15 K, 101.33 kPa, x1 = 0.7787	0.866 mPa·s
323.15 K, 101.33 kPa, x2 = 0.0102	0.729 mPa·s

COCCOCCOCCOCCOC + O
viscosity [mPa·s], 101 kPa
Settings	298 K	303.15 K	308.15 K	313.15 K	318.15 K	323.15 K
x1 = 0.00562	–	1.177	1.049	0.937	0.839	0.767
x1 = 0.0075	1.323	–	–	–	–	–
x1 = 0.0142	1.533	–	–	–	–	–
x1 = 0.02904	–	2.119	1.844	1.618	1.431	1.275
x1 = 0.0297	2.433	–	–	–	–	–
x1 = 0.0419	3.198	–	–	–	–	–
x1 = 0.04576	–	3.14	2.677	2.309	1.992	1.766
x1 = 0.0593	4.289	–	–	–	–	–
x1 = 0.07654	–	4.235	3.566	3.043	2.621	2.273
x1 = 0.0784	5.24	–	–	–	–	–
x1 = 0.1006	–	4.915	4.126	3.487	2.994	2.593
x1 = 0.1139	6.253	–	–	–	–	–
x1 = 0.1272	–	5.245	4.392	3.729	3.181	2.758
x1 = 0.1398	6.469	–	–	–	–	–
x1 = 0.1512	–	5.331	4.475	3.802	3.273	2.838
x1 = 0.1543	6.411	–	–	–	–	–
x1 = 0.2009	–	5.151	4.371	3.744	3.243	2.839
x1 = 0.2493	–	4.865	4.154	3.6	3.128	2.76
x1 = 0.2986	–	4.539	3.909	3.397	2.982	–
x1 = 0.3508	–	4.269	3.695	3.228	2.845	2.528
x1 = 0.4016	–	4.026	3.508	3.089	2.735	2.433
x1 = 0.5033	–	3.66	3.22	2.853	2.543	2.281
x1 = 0.5975	–	3.428	3.025	2.698	2.42	2.183
x1 = 0.7029	–	3.236	2.883	2.577	2.323	–
x1 = 0.8018	–	3.113	2.78	2.497	2.257	2.047
x1 = 0.8532	–	3.066	2.744	2.467	2.231	2.029
x1 = 0.9025	–	3.019	2.704	–	2.203	–
x1 = 0.9447	–	2.982	2.679	2.414	2.182	1.99
